Test [1] addresses human PCSK9 / human LDLR EGFa domain interaction (Homo sapiens, UniProt Q8NBP7). Put plainly: TR-FRET assay of inhibition of the PCSK9-LDLR protein-protein interaction. In kind it is binding. The following applies: 20 nM biotinylated human PCSK9 + 20 nM his-tagged human LDLR EGFa domain, 2 hours room temperature. On the procedure: A time-resolved fluorescence resonance energy (TR-FRET) assay was used to measure inhibition of the PCSK9-LDLR protein-protein interaction. Briefly, 20 nM avitag-biotinylated human PCSK9 was incubated with 20 nM his-tagged human LDLR EGFa domain in the presence of 5 nM LANCE Ulight Streptavidin (Perkin Elmer) and 5 nM europium-Anti-6×His (Perkin Elmer) for 2 hours covered at room temperature in buffer containing 50 mM HEPES, 150 mM NaCl, 5 mM CaCl2, 0.01% BSA and 0.01% Surfactant P20. Compounds were tested in dose-response and concentrations giving half-maximal inhibition calculated using a 4-parameter fit equation.
In general terms: TR-FRET usually uses a lanthanide donor and a delayed reading to cut background.

The target in another test is T1, PCSK9 (Homo sapiens, UniProt Q8NBP7).
T1 construct: biotin (biotinylated)
T1 sequence (Q8NBP7 153-692): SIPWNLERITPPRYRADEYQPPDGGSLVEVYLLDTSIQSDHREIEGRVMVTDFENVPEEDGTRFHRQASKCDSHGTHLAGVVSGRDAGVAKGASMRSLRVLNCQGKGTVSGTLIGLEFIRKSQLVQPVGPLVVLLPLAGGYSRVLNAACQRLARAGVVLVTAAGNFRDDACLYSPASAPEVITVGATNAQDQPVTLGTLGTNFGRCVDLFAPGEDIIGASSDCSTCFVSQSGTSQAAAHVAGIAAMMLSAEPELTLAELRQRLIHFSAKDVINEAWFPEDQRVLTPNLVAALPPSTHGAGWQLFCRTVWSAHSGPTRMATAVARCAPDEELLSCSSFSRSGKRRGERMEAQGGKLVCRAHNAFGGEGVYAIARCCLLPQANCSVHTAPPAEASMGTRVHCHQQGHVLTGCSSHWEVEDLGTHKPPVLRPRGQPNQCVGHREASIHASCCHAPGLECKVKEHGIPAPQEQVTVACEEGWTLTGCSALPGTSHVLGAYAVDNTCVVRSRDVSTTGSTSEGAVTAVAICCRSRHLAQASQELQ
Put plainly: PCSK9 Alexa FRET Standard assay (displacement of AlexaFluor647-tagged cyclic peptide Reagent A). The class given is binding. The following applies: 0.5 nM PCSK9, 20 nM AF cyclic peptide Reagent A. On the procedure: A solution containing 1 nM biotinylated PCSK9+2.5 nM Lance Streptavidin Europium (Strep-Eu) was made in 50 mM HEPES pH 7.4, 0.15 M NaCl, 5 mM CaCl2, 0.01% BSA, and 0.01% Surfactant P20. A separate solution containing 40 nM of the AlexaFluor tagged cyclic peptide was made in the same buffer system. An Echo was used to transfer 0.750 ul of compound to an assay plate followed by the addition of 15 ul of PCSK9+Stept-Eu and 15 ul of AF peptide. The final assay volume was 30.750 ul containing 0.5 nM PCSK9, 1.25 nM Strep-Eu, and 20 nM AF cyclic peptide. The reaction was incubated at room temperature for at least two hours prior to fluorescence measurements using an Envision Multilabel Reader. IC50 values were determined by fitting data to a sigmoidal dose-response curve using nonlinear regression. Ki was then calculated from the IC50 and the KD of AF cyclic peptide. Counts (B-counts) of the europium-labeled PCSK9 were followed to observe if compounds were […]. A fall off of the B-counts likely indicated a false positive of inhibition. Data from this procedure was reported as “A=‘numerical value’ (nanomolar)”

IC50 data for 15 molecules are collected here from US11505575B2, “Cyclic polypeptides for PCSK9 inhibition” (Merck Sharp & Dohme LLC, priority 2018, dated 2022).

*1 amine or outer side, *2 acyl side, *3 side chain or, on linkers, in order; H or OH if unused. Where a SMILES comes first, the peptide text is derived from it. Bridges are numbered along the chain shown (N, C = ends). [ ]: non-standard residue; d: D form. 3Aminoazetidine3carboxyl = O=C(C1(N[*:1])CN([*:3])C1)[*:2]; Trp(7-aza) = N[C@@H](Cc1c[nH]c2ncccc12)C(=O)O; hAad = O=C([C@H](CCCCC(=O)[*:3])N[*:1])[*:2]; mXylylene(5-F) = Fc1cc(C[*:1])cc(C[*:2])c1; X2 = O=C(CCSCc1cccc(CSCCN[*:1])c1)[*:2]; 1Nal = N[C@@H](Cc1cccc2ccccc12)C(=O)O; mXylylene = c1cc(C[*:1])cc(C[*:2])c1; d(aThr) = C[C@@H](O)[C@@H](N)C(=O)O; aThr = C[C@H](O)[C@H](N)C(=O)O; αMeOrn = C[C@](N)(CCCN)C(=O)O; Chg = N[C@H](C(=O)O)C1CCCCC1; Tle = CC(C)(C)[C@H](N)C(=O)O; αMeV = CC(C)[C@](C)(N)C(=O)O; Dab = NCC[C@H](N)C(=O)O; Nva = CCC[C@H](N)C(=O)O; Aib = CC(C)(N)C(=O)O; Ahx = NCCCCCC(=O)O; GABA = NCCCC(=O)O; Mpa = O=C(O)CCS

human PCSK9 / human LDLR EGFa domain interaction, sequence (Q8NBP7 153-692): as above
human PCSK9 / human LDLR EGFa domain interaction, sequence (Q8NBP7 31-152 partner limits assumed): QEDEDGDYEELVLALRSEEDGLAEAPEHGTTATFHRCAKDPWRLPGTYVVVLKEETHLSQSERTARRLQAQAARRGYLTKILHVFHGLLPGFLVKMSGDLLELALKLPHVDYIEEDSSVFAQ

What is called IC50 is the concentration needed to halve the response being measured. Turning to `CCC[C@H](NC(=O)[C@H](CCCCN)NC(C)=O)C(=O)N[C@H]1CSCc2cccc(c2)CSC[C@@H](C(N)=O)NC(=O)[C@H]([C@@H](C)O)NC(=O)[C@H](C2CCCCC2)NC(=O)[C@H](Cc2c[nH]c3ncccc23)NC(=O)[C@H](Cc2cnc[nH]2)NC(=O)[C@H](CCC(=O)O)NC(=O)[C@H](Cc2c[nH]c3ncccc23)NC(=O)[C@H]([C@@H](C)O)NC(=O)[C@@H]2CCCN2C(=O)[C@H](Cc2ccc(O)cc2)NC(=O)[C@H](C(C)(C)C)NC1=O` [Compound 002] (Ac-K[Nva]C[Tle]YPT[Trp(7-aza)]EH[Trp(7-aza)][Chg]TC-NH2; linker 3-14 via mXylylene), the IC50 (in test [1]; on PCSK9) was 0.001 to 0.1 µM throughout.
Take `CC1O[C@@H](C)[C@@H]2NC(=O)[C@@]1(C)NC(=O)[C@H](Cc1ccc(O)cc1)NC(=O)[C@H](C)NC(=O)C(C)(C)NC(=O)[C@H](Cc1c[nH]c3ncccc13)NC(=O)[C@H]([C@@H](C)O)NC(=O)[C@@H]1CCCN1C(=O)[C@H](Cc1ccc(O)cc1)NC(=O)[C@H](C(C)(C)C)NC(=O)CCSCc1cccc(c1)CSC[C@@H](C(N)=O)NC2=O` (stereo partly shown) [Compound 017]: the IC50 in test [1] is 0.1 to 1 µM; at PCSK9, 0.001 to 0.1 µM.
In the case of `CC(C)[C@]1(C)NC(=O)[C@H](Cc2ccc(O)cc2)NC(=O)[C@H](C)NC(=O)C(C)(C)NC(=O)[C@H](Cc2c[nH]c3ncccc23)NC(=O)[C@H]([C@@H](C)O)NC(=O)[C@@H]2CCCN2C(=O)[C@H](Cc2ccc(O)cc2)NC(=O)[C@H](C(C)(C)C)NC(=O)CCSCc2cccc(c2)CSC[C@@H](C(N)=O)NC(=O)[C@H](CO)NC1=O` [Compound 018] ([Mpa][Tle]YPT[Trp(7-aza)][Aib]AY[αMeV]SC-NH2; linker 1-12 via mXylylene), the IC50 (in test [1]; at PCSK9) was 0.001 to 0.1 µM each time.
`CC(C)[C@]1(C)NC(=O)[C@H](Cc2ccc(O)cc2)NC(=O)[C@H](C)NC(=O)C(C)(C)NC(=O)[C@H](Cc2c[nH]c3ncccc23)NC(=O)[C@H]([C@@H](C)O)NC(=O)[C@@H]2CCCN2C(=O)[C@H](Cc2ccc(O)cc2)NC(=O)[C@H](C(C)(C)C)NC(=O)CCSCc2cccc(c2)CSC[C@@H](C(N)=O)NC(=O)[C@H](CCCCN)NC1=O` [Compound 019] ([Mpa][Tle]YPT[Trp(7-aza)][Aib]AY[αMeV]KC-NH2; linker 1-12 via mXylylene): the IC50 in test [1] was 21 to 50 µM; at PCSK9, 1 to 12.1 µM.
In the same order, the values of `CC(C)[C@]1(C)NC(=O)[C@H](Cc2ccc(O)cc2)NC(=O)[C@H](CCC(=O)O)NC(=O)C(C)(C)NC(=O)[C@H](Cc2c[nH]c3ncccc23)NC(=O)[C@H]([C@@H](C)O)NC(=O)[C@@H]2CCCN2C(=O)[C@H](Cc2ccc(O)cc2)NC(=O)[C@H](C(C)(C)C)NC(=O)CCSCc2cccc(c2)CSC[C@@H](C(N)=O)NC(=O)[C@H]([C@H](C)O)NC1=O` [Compound 020] ([Mpa][Tle]YPT[Trp(7-aza)][Aib]EY[αMeV][aThr]C-NH2; linker 1-12 via mXylylene) are 21 to 50 µM and 1 to 12.1 µM.
For the molecule `CC(C)[C@@H]1NC(=O)CCSCc2cccc(c2)CSCCNC(=O)[C@H](C)NC(=O)[C@](C)(C(C)C)NC(=O)[C@H](Cc2ccccc2)NC(=O)[C@H](C)NC(=O)C(C)(C)NC(=O)[C@H](Cc2cccc3ccccc23)NC(=O)[C@H]([C@@H](C)O)NC(=O)[C@@H]2CCCN2C(=O)[C@H](Cc2ccccc2)NC1=O` [Compound 021] (cyclo([1Nal][Aib]AF[αMeV]A[X2]VFPT)), the IC50 lay within 0.1 to 1 µM in test [1] and 0.001 to 0.1 µM at PCSK9.
The matching figures for `CCC[C@@H]1NC(=O)[C@H](Cc2cccc3ccccc23)NC(=O)[C@H]([C@@H](C)O)NC(=O)[C@@H]2CCCN2C(=O)[C@H](Cc2ccccc2)NC(=O)[C@H](C(C)C)NC(=O)CCSCc2cccc(c2)CSCCNC(=O)[C@H](C)NC(=O)[C@](C)(C(C)C)NC(=O)[C@H](Cc2ccccc2)NC(=O)[C@H](C)NC1=O` [Compound 022] (cyclo([1Nal][Nva]AF[αMeV]A[X2]VFPT)): 0.1 to 1 µM and 0.001 to 0.1 µM.
For the molecule `CC(C)[C@]1(C)NC(=O)[C@H](Cc2ccc(O)cc2)NC(=O)[C@H](C)NC(=O)[C@](C)(CCCN)NC(=O)[C@H](Cc2c[nH]c3ncccc23)NC(=O)[C@H]([C@@H](C)O)NC(=O)[C@@H]2CCCN2C(=O)[C@H](Cc2ccc(O)cc2)NC(=O)[C@H](C(C)(C)C)NC(=O)CCSCc2cccc(c2)CSC[C@H](C(N)=O)NC(=O)[C@H]([C@@H](C)O)NC1=O` [Compound 025] ([Mpa][Tle]YPT[Trp(7-aza)][αMeOrn]AY[αMeV]T[dC]-NH2; linker 1-12 via mXylylene), on PCSK9, the half-maximal inhibitory concentration (IC50) was 0.001 to 0.1 µM.
On the same count and under the same terms, under `CC(=O)N[C@H]1CSCc2cc(F)cc(c2)CSC[C@@H](C(N)=O)NC(=O)[C@H]([C@@H](C)O)NC(=O)[C@](C)(C(C)C)NC(=O)[C@H](Cc2ccc(O)cc2)NC(=O)[C@H](C)NC(=O)C(C)(C)NC(=O)[C@H](Cc2c[nH]c3ncccc23)NC(=O)[C@H]([C@@H](C)O)NC(=O)[C@@H]2CCCN2C(=O)[C@H](Cc2ccc(O)cc2)NC(=O)[C@H](C(C)(C)C)NC1=O` [Compound 026] (Ac-C[Tle]YPT[Trp(7-aza)][Aib]AY[αMeV]TC-NH2; linker 1-12 via mXylylene(5-F)) stands 0.001 to 0.1 µM; under `CC(=O)N[C@H]1CSCc2cccc(c2)CSC[C@H](C(N)=O)NC(=O)[C@H]([C@@H](C)O)NC(=O)[C@](C)(C(C)C)NC(=O)[C@H](Cc2ccc(O)cc2)NC(=O)[C@H](C)NC(=O)C(C)(C)NC(=O)[C@H](Cc2c[nH]c3ncccc23)NC(=O)[C@H]([C@H](C)O)NC(=O)[C@@H]2CCCN2C(=O)[C@H](Cc2ccc(O)cc2)NC(=O)[C@H](C(C)(C)C)NC1=O` [Compound 029] (Ac-C[Tle]YP[aThr][Trp(7-aza)][Aib]AY[αMeV]T[dC]-NH2; linker 1-12 via mXylylene), 0.1 to 1 µM; under `CC(=O)N[C@H]1CSCc2cccc(c2)CSC[C@H](C(N)=O)NC(=O)[C@H]([C@@H](C)O)NC(=O)[C@](C)(C(C)C)NC(=O)[C@H](Cc2ccc(O)cc2)NC(=O)[C@H](C)NC(=O)[C@](C)(CCCN)NC(=O)[C@H](Cc2c[nH]c3ncccc23)NC(=O)[C@H]([C@@H](C)O)NC(=O)[C@@H]2CCCN2C(=O)[C@H](Cc2ccc(O)cc2)NC(=O)[C@H](C(C)(C)C)NC1=O` [Compound 033] (Ac-C[Tle]YPT[Trp(7-aza)][αMeOrn]AY[αMeV]T[dC]-NH2; linker 1-12 via mXylylene), 0.001 to 0.1 µM.
Still for that read-out and setting: under `CC(=O)N[C@H]1CSCc2cccc(c2)CSC[C@H](C(N)=O)NC(=O)[C@H]([C@@H](C)O)NC(=O)[C@](C)(C(C)C)NC(=O)[C@H](Cc2ccc(O)cc2)NC(=O)[C@H](C)NC(=O)C2(CNC2)NC(=O)[C@H](Cc2c[nH]c3ncccc23)NC(=O)[C@H]([C@@H](C)O)NC(=O)[C@@H]2CCCN2C(=O)[C@H](Cc2ccc(O)cc2)NC(=O)[C@H](C(C)(C)C)NC1=O` [Compound 038] (Ac-C[Tle]YPT[Trp(7-aza)][3Aminoazetidine3carboxyl]AY[αMeV]T[dC]-NH2; linker 1-12 via mXylylene) stands 0.001 to 0.1 µM.
In the case of `CCC[C@@H]1NC(=O)[C@H](Cc2c[nH]c3ncccc23)NC(=O)[C@@H]([C@@H](C)O)NC(=O)[C@@H]2CCCCC(=O)NCC[C@H](NC1=O)C(=O)N[C@@H](Cc1ccc(O)cc1)C(=O)N[C@@H](C1CCCCC1)C(=O)N[C@@H]([C@@H](C)O)C(=O)N[C@H](C(N)=O)CSCc1cccc(c1)CSCCC(=O)N[C@@H](C(C)(C)C)C(=O)N[C@@H](Cc1ccc(O)cc1)C(=O)N2` [Compound 108] ([Mpa][Tle]Y[hAad][d(aThr)][Trp(7-aza)][Nva][Dab]Y[Chg]TC-NH2; linker 1-12 via mXylylene; lactam 4-8), the IC50 in test [1] fell in the range of 0.1 to 1 µM.
Still for that read-out and setting: as for `CCC[C@@H]1NC(=O)[C@H](Cc2c[nH]c3ncccc23)NC(=O)[C@H]([C@@H](C)O)NC(=O)[C@@H]2CCCCNC(=O)CC[C@H](NC1=O)C(=O)N[C@@H](Cc1ccc(O)cc1)C(=O)NC(C)(C)C(=O)N[C@@H]([C@@H](C)O)C(=O)N[C@H](C(N)=O)CSCc1cccc(c1)CSCCC(=O)N[C@@H](C(C)(C)C)C(=O)N[C@@H](Cc1ccc(O)cc1)C(=O)N2` [Compound 114] ([Mpa][Tle]YKT[Trp(7-aza)][Nva]EY[Aib]TC-NH2; linker 1-12 via mXylylene; lactam 4-8), the figure is 0.1 to 1 µM.
Same read-out and setting: under `CCC[C@@H]1NC(=O)[C@H](Cc2c[nH]c3ncccc23)NC(=O)[C@H]([C@@H](C)O)NC(=O)[C@@H]2CCCCNC(=O)CC[C@@H](NC1=O)C(=O)N[C@@H](Cc1ccc(O)cc1)C(=O)N[C@@H](C1CCCCC1)C(=O)N[C@@H]([C@@H](C)O)C(=O)NCCCC(=O)NCCCCCC(=O)N[C@@H](C(C)(C)C)C(=O)N[C@@H](Cc1ccc(O)cc1)C(=O)N2` [Compound 117] (cyclo([Ahx][Tle]YKT[Trp(7-aza)][Nva][dE]Y[Chg]T[GABA]); lactam 4-8) stands 0.1 to 1 µM.
